Type in all cases: cell-based
Assay [1] addresses T1, Alpha 2C (Homo sapiens, UniProt P18825).
T1 sequence (P18825 1-462): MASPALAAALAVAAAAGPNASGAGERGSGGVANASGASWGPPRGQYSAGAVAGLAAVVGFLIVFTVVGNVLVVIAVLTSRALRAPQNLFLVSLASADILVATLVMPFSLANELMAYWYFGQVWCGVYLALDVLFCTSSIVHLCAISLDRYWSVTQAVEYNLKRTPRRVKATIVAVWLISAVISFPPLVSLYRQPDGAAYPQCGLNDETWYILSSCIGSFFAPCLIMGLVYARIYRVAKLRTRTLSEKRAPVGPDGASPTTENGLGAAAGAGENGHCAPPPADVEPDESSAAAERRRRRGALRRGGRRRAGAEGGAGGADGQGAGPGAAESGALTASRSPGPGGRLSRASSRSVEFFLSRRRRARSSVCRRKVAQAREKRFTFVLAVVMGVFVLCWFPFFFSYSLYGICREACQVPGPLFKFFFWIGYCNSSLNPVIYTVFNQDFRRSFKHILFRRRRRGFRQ
Nature of the assay: FLIPR assay, intracellular Ca2+ mobilization, alpha 2C. As to conditions: for EC50: agonist, read-out: Alpha 2C Potency (EC50); for Alpha 2C relative efficacy compared to a standard full agonist: value in parentheses. On the procedure: (§1) Cells are loaded into a plate reader with a Ca^2+ dye indicator and incubated with various compounds. This assay is adequate for monitoring the intracellular Ca^2+ mobilization from fluorescent readings to evaluate receptor agonists.
(In general: Calcium flux is commonly read through the fluorescence of an indicator in the cells.)

For assay [2], the target named is T2, Alpha 2B (Homo sapiens, UniProt P18089).
T2 sequence (P18089 1-450): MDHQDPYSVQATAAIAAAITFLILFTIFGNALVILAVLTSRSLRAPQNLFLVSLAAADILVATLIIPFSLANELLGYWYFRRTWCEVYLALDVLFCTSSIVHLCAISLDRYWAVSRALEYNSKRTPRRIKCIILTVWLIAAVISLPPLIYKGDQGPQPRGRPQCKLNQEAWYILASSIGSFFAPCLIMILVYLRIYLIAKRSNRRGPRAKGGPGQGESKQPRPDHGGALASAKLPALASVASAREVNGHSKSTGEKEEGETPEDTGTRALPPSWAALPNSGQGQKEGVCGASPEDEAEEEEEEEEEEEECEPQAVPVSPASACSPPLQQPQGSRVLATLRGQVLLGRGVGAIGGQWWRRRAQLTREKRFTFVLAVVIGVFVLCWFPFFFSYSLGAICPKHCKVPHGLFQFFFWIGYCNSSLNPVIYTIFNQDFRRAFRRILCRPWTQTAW
In words: FLIPR assay, intracellular Ca2+ mobilization, alpha 2B. As to conditions: FLIPR; for EC50: agonist, read-out: Alpha 2B Potency (EC50); for Alpha 2B relative efficacy compared to a standard full agonist: value in parentheses. On the procedure:
as §1

For assay [3], the target named is T3, Alpha 2A (Homo sapiens, UniProt P08913).
T3 sequence (P08913 1-465): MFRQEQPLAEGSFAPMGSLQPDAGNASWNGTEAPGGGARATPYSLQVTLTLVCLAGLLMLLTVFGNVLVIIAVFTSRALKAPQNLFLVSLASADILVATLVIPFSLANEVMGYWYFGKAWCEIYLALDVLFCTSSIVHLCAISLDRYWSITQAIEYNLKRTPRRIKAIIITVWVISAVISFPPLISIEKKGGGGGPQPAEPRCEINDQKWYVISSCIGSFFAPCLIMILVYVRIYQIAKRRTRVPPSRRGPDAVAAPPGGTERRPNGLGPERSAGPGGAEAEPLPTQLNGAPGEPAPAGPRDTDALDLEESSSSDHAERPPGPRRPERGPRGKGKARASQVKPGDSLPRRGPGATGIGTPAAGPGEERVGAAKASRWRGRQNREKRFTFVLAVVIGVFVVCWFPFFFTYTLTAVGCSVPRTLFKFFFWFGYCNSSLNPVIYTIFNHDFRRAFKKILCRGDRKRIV
In words: FLIPR assay, intracellular Ca2+ mobilization, alpha 2A. Conditions: for EC50: agonist, read-out: Alpha 2A Potency (EC50); for Alpha 2A relative efficacy compared to a standard full agonist: value in parentheses. The procedure:
The compounds described herein were tested for alpha adrenergic activity using a Fluorometric Imaging plate Reader (FLIPR) assay (Princen et al., 2003, Cytometry Part A. 51, pp. 35-45). Cells are loaded into a plate reader with a Ca^2+ dye indicator and incubated with various compounds. This assay is adequate for monitoring the intracellular Ca^2+ mobilization from fluorescent readings to evaluate receptor agonists. […] The compounds described herein activate alpha adrenergic receptors.

Structures are written as SMILES.

By EC50 is commonly meant the concentration that produces a half-maximal response.

As for `Brc1c(NC2=NCCC2)ccc2nccnc12` [Compound 8, 5-Bromo-N-(3,4-dihydro-2H-pyrrol-5-yl)quinoxalin-6-amine], in assay [1], the EC50 is 1050 nM and the “Alpha 2C relative efficacy compared to a standard full agonist” value (from here on “Alpha 2C relative efficacy”) is recorded as “(0.82)”. In addition, in assay [2], the 50% effective concentration (EC50) was 2200 nM and the “Alpha 2B relative efficacy compared to a standard full agonist” value (“Alpha 2B relative efficacy” below) was “(0.21)”. Besides, in assay [3], the 50% effective concentration (EC50) is 1070 nM and the “Alpha 2A relative efficacy compared to a standard full agonist” value is “(0.81)”.
Consider `c1cnc2cc(NC3=NCCC3)ccc2n1` [Compound 14, N-(3,4-Dihydro-2H-pyrrol-5-yl)quinoxalin-6-amine], for which, in assay [1], the EC50 is 2740 nM and the “Alpha 2C relative efficacy” value was “(0.66)”.
For `c1cnc2cc(NC3=NCCC3)ccc2c1` [Compound 28, N-(3,4-Dihydro-2H-pyrrol-5-yl)quinolin-7-amine] the same measures were 104 nM and “(0.96)”.
For `c1cc2ccc(NC3=NCCC3)cc2[nH]1` [Compound 21, N-(3,4-Dihydro-2H-pyrrol-5-yl)-1H-indol-6-amine] the same measures were 280 nM and “(0.75)”.
With `Fc1cccc2c1C(NC1=NCCC1)CC2` (centres unmarked) [Compound 35, N-(7-Fluoro-2,3-dihydro-1H-inden-1-yl)-3,4-dihydro-2H-pyrrol-5-amine], in assay [1], the concentration for a half-maximal effect (EC50) is 560 nM and the “Alpha 2C relative efficacy” value is on record as “(0.87)”. For the same compound, in assay [2], the EC50 is 618 nM and the “Alpha 2B relative efficacy” value is “(0.44)”.
On to `c1cnc2c(NC3=NCCC3)cccc2c1` [Compound 30, N-(3,4-dihydro-2H-pyrrol-5-yl)quinolin-8-amine], for which, in assay [1], the concentration for a half-maximal effect (EC50) came out at 2970 nM and the “Alpha 2C relative efficacy” value is listed as “(0.71)”.
Taken in the same sequence, the figures for `c1cc2c(c(NC3=NCCC3)c1)CCC2` [Compound 16, N-(2,3-Dihydro-1H-inden-4-yl)-3,4-dihydro-2H-pyrrol-5-amine] were 123 nM and “(0.85)”.
For `Clc1c(/N=C2\CCCN2)cnc2cccnc12` [Compound 6, 4-Chloro-N-[(2E)-pyrrolidin-2-ylidene]-1,5-naphthyridin-3-amine] the same measures were 2600 nM and “(0.59)”.
For the compound `Brc1ccc(NC2=NCCC2)c2ccccc12` [Compound 3, N-(4-Bromo-1-naphthyl)-3,4-dihydro-2H-pyrrol-5-amine], in assay [1], the concentration giving a half-maximal response (EC50) was determined as 833 nM and the “Alpha 2C relative efficacy” value is recorded as “(0.85)”. In addition, in assay [2], the EC50 is 700 nM and the “Alpha 2B relative efficacy” value is “(0.15)”.
Turning to `c1cc2cc(NC3=NCCC3)ccc2o1` [Compound 24, N-1-Benzofuran-5-yl-3,4-dihydro-2H-pyrrol-5-amine], in assay [1], the half-maximal effective concentration (EC50) stood at 630 nM and the “Alpha 2C relative efficacy” value was “(0.51)”.
In the case of `c1cc2cc(NC3=NCCC3)ccc2[nH]1` [Compound 17, N-(3,4-Dihydro-2H-pyrrol-5-yl)-1H-indol-5-amine], in assay [1], the concentration giving a half-maximal response (EC50) amounted to 9 nM and the “Alpha 2C relative efficacy” value is listed as “(0.9)”. Also, in assay [2], the EC50 came to 10 nM and the “Alpha 2B relative efficacy” value was “(0.15)”.
For the compound `Cc1c(/N=C2\CCCN2)cnc2[nH]ccc12` [Compound 38, 4-Methyl-N-[(2E)-pyrrolidin-2-ylidene]-1H-pyrrolo[2,3-b]pyridin-5-amine], in assay [1], the concentration for a half-maximal effect (EC50) amounted to 22 nM and the “Alpha 2C relative efficacy” value is given as “(0.9)”. In addition, in assay [3], the concentration giving a half-maximal response (EC50) came out at 555 nM and the “Alpha 2A relative efficacy compared to a standard full agonist” value was “(0.79)”.
As for `Cc1cc(NC2=NCCC2)cc2cc[nH]c12` [Compound 19, N-(3,4-Dihydro-2H-pyrrol-5-yl)-7-methyl-1H-indol-5-amine], in assay [1], the EC50 came to 12 nM and the “Alpha 2C relative efficacy” value is reported as “(0.85)”. Moreover, in assay [2], the EC50 came to 142 nM and the “Alpha 2B relative efficacy” value is listed as “(0.29)”.
`c1cc2cc(NC3=NCCC3)ccc2s1` [Compound 23, N-1-Benzothien-5-yl-3,4-dihydro-2H-pyrrol-5-amine]: in assay [1], the EC50 came to 89 nM and the “Alpha 2C relative efficacy” value is given as “(0.66)”.
Take `Clc1cc(NC2=NCCC2)cc2nc[nH]c12` [Compound 13, 7-Chloro-N-(3,4-dihydro-2H-pyrrol-5-yl)-1H-benzimidazol-5-amine]: in assay [1], the 50% effective concentration (EC50) turned out to be 435 nM and the “Alpha 2C relative efficacy” value was “(0.98)”. Besides, in assay [2], the EC50 was found to be 1840 nM and the “Alpha 2B relative efficacy” value was “(0.35)”.
Regarding `c1nc2c(cc1NC1=NCCC1)CCC2` [Compound 5, N-(3,4-Dihydro-2H-pyrrol-5-yl)-6,7-dihydro-5H-cyclopenta[b]pyridin-3-amine], in assay [1], the half-maximal effective concentration (EC50) turned out to be 1280 nM and the “Alpha 2C relative efficacy” value is recorded as “(0.86)”.
Taken in the same sequence, the figures for `c1cc(NC2=NCCC2)c2cnccc2c1` [Compound 32, N-(3,4-Dihydro-2H-pyrrol-5-yl)isoquinolin-8-amine] were 643 nM and “(0.95)”.
Regarding `c1ccc2c(c1)CCC[C@@H]2NC1=NCCC1` [Compound 34, N-[(1S)-1,2,3,4-Tetrahydronaphthalen-1-yl]-3,4-dihydro-2H-pyrrol-5-amine], in assay [1], the EC50 was determined as 221 nM and the “Alpha 2C relative efficacy” value is given as “(0.8)”. In assay [2], the EC50 came to 163 nM and the “Alpha 2B relative efficacy” value was “(0.43)”.
Take `Cc1c(NC2=NCCC2)ccc2[nH]ccc12` [Compound 18, N-(3,4-Dihydro-2H-pyrrol-5-yl)-4-methyl-1H-indol-5-amine]: in assay [1], the 50% effective concentration (EC50) came to 69 nM and the “Alpha 2C relative efficacy” value was “(0.9)”. Besides, in assay [2], the EC50 was determined as 39 nM and the “Alpha 2B relative efficacy” value is given as “(0.18)”.
Taken in the same sequence, the figures for `Brc1cc(NC2=NCCC2)cc2cc[nH]c12` [Compound 20, 7-Bromo-N-(3,4-dihydro-2H-pyrrol-5-yl)-1H-indol-5-amine] were 12 nM, “(0.95)”, 79 nM and “(0.61)”.
Turning to `c1cc(NC2=NCCC2)c2[nH]ccc2c1` [Compound 22, N-(3,4-Dihydro-2H-pyrrol-5-yl)-1H-indol-7-amine], in assay [1], the EC50 came to 2160 nM and the “Alpha 2C relative efficacy” value is given as “(0.61)”.
Turning to `c1nc2cc(NC3=NCCC3)ccc2[nH]1` [Compound 4, N-(3,4-Dihydro-2H-pyrrol-5-yl)-1H-benzimidazol-5-amine], in assay [1], the 50% effective concentration (EC50) worked out at 142 nM and the “Alpha 2C relative efficacy” value was “(1.06)”. Also, in assay [2], the EC50 is 714 nM and the “Alpha 2B relative efficacy” value is “(0.19)”.
Turning to `c1ccc2c(c1)CC[C@@H]2NC1=NCCC1` [Compound 33, N-[(1S)-2,3-Dihydro-1H-inden-1-yl]-3,4-dihydro-2H-pyrrol-5-amine], in assay [1], the EC50 stood at 281 nM and the “Alpha 2C relative efficacy” value is given as “(0.68)”.
Consider `Clc1ccc(NC2=NCCC2)c2ccccc12` [Compound 7, N-(4-Chloro-1-naphthyl)-3,4-dihydro-2H-pyrrol-5-amine], for which, in assay [1], the EC50 is 672 nM and the “Alpha 2C relative efficacy” value is “(0.84)”. Also, in assay [2], the half-maximal effective concentration (EC50) worked out at 1070 nM and the “Alpha 2B relative efficacy” value is on record as “(0.33)”.

(Values after US9040532B2, “Alpha adrenergic receptor modulators” (Allergan, Inc., priority 2009, dated 2015).)
